In patent US9029325B2, “Amylin analogues and pharmaceutical compositions thereof” (Novo Nordisk A/S, priority 2011, dated 2015):
Starred links: 1 amine or outer side, 2 acyl side, 3 side chain; linkers in the order of their positions; H or OH if unused. Positions of bridges follow the written chain, without caps; N, C: chain ends. Residues, ends and D or L forms follow the SMILES beside them. *: point of attachment. C20 diacid = O=C(O)CCCCCCCCCCCCCCCCCCC(=O)*; γGlu = O=C(O)[C@H](CCC(=O)[*:2])N[*:1]

Assay: Assay (III) ThT fibrillation assay for physical stability
Type: physicochemical
Details: for Th T pH 4.0 lag time (h): 37° C., orbital shaking 960 rpm; for ThT pH 4.0 lag time: Table 9
Text: Low physical stability of a polypeptide may lead to amyloid fibril formation, which is observed as well-ordered, thread-like macromolecular structures in the sample eventually resulting in gel formation. This has traditionally been measured by visual inspection of the sample. However, that kind of measurement is very subjective and depending on the observer. Therefore, the application of a small molecule indicator probe is much more advantageous. Thioflavin T (ThT) is such a probe and has a distinct fluorescence signature when binding to fibrils [Naiki et al. (1989) Anal. Biochem. 177, 244-249; LeVine (1999) Methods. Enzymol. […], 274-284].
The time course for fibril formation can be described by a sigmoidal curve with the following expression [Nielsen et al. (2001) Biochemistry 40, 6036-6046]:
[formula] Here, F is the ThT fluorescence at the time t. The constant t0 is the time needed to reach 50% of maximum fluorescence. The two important parameters describing fibril formation are the lag-time calculated by t0−2T and the apparent rate constant kapp=1/τ.
Few of those intermediates nucleate to form a template onto which further intermediates may assembly and the fibrillation proceeds. The lag-time corresponds to the interval in which the critical mass of nucleus is built up and the apparent rate constant is the rate with which the fibril itself is formed.
Samples were prepared freshly before each assay. Each sample composition is described in each example. The pH of the sample was adjusted to the desired value using appropriate amounts of concentrated NaOH and HClO4 or HCl. Thioflavin T was added to the samples from a stock solution in H2O to a final concentration of 1 μM.
Sample aliquots of 200 μl were placed in a 96 well microtiter plate (Packard OptiPlate™-96, white polystyrene). Usually, four or eight replica of each sample (corresponding to one test condition) were placed in one column of wells. The plate was sealed with Scotch Pad (Qiagen).
Incubation at given temperature, shaking and measurement of the ThT fluorescence emission were done in a Fluoroskan Ascent FL fluorescence platereader or Varioskan platereader (Thermo Labsystems). The temperature was adjusted to 37° C. The orbital shaking was adjusted to 960 rpm with an amplitude of 1 mm in all the presented data. Fluorescence measurement was done using excitation through a 444 nm filter and measurement of emission through a 485 nm filter.
Each run was initiated by incubating the plate at the assay temperature for 10 min. The plate was measured every 20 minutes for a desired period of time. Between each measurement, the plate was shaken and heated as described.
The measurement points were saved in Microsoft Excel format for further processing and curve drawing and fitting was performed using GraphPad Prism. The background emission from ThT in the absence of fibrils was negligible. The data points are typically a mean of four or eight samples and shown with standard deviation error bars. Only data obtained in the same experiment (i.e. samples on the same plate) are presented in the same graph ensuring a relative measure of fibrillation […].
The data set may be fitted to Eq. (1). However, since full sigmodial curves in this case are not always achieved during the measurement time, the degree of fibrillation is expressed as ThT fluorescence tabulated as the mean of the samples and shown with the standard deviation at various time points.
The polypeptide concentration in each of the tested formulations were measured both before application in the ThT fibrillation assay (“Initial”) and after completion of the ThT fibrillation (“After ThT assay”). Concentrations were determined by reverse HPLC methods using a pramlintide standard as a reference. Before measurement after completion 150 μl was collected from each of the replica and transferred to an Eppendorf tube. These were centrifuged at 30000 G for 40 mins. […]

Structure (SMILES)	Th T pH 4.0 lag time (h)	ThT pH 4.0 lag time
CC[C@H](C)[C@H](NC(=O)[C@@H]1CCCN1C(=O)CNC(=O)[C@H](Cc1ccccc1)NC(=O)[C@H](CC(N)=O)NC(=O)[C@H](CCC(N)=O)NC(=O)[C@H](CO)NC(=O)[C@H](CO)NC(=O)[C@H](Cc1c[nH]cn1)NC(=O)[C@H](Cc1c[nH]cn1)NC(=O)[C@H](CC(C)C)NC(=O)[C@H](Cc1ccccc1)NC(=O)[C@H](CCC(=O)O)NC(=O)[C@H](C)NC(=O)[C@H](CC(C)C)NC(=O)[C@H](CCCNC(=N)N)NC(=O)[C@H](CCC(N)=O)NC(=O)[C@@H](NC(=O)[C@H](C)NC(=O)[C@@H]1CSSC[C@H](NC(=O)CNC(=O)CC[C@H](NC(=O)CCCCCCCCCCCCCCCCCCC(=O)O)C(=O)O)C(=O)N[C@@H](CC(N)=O)C(=O)N[C@@H]([C@@H](C)O)C(=O)N[C@@H](C)C(=O)N[C@@H]([C@@H](C)O)C(=O)N1)[C@@H](C)O)C(=O)N[C@@H](CC(C)C)C(=O)N1CCC[C@H]1C(=O)N1CCC[C@H]1C(=O)N[C@H](C(=O)N[C@@H](CC(N)=O)C(=O)N[C@H](C(=O)NCC(=O)N[C@@H](CO)C(=O)N[C@@H](CCC(N)=O)C(=O)N[C@H](C(=O)N1CCC[C@H]1C(N)=O)[C@@H](C)O)C(C)C)[C@@H](C)O [Example 137, N-alpha-[(S)-4-Carboxy-4-(19-carboxynonadecanoylamino)butyryl]-[Gly1, Glu14, His17, Gln21, Gln35, Pro37]-pramlintide] ({C20 diacid-γGlu}-GCNTATCATQRLAEFLHHSSQNFGPILPPTNVGSQTP-NH2; disulfide 2-7)	29 h	
CC[C@H](C)[C@H](NC(=O)[C@@H]1CCCN1C(=O)CNC(=O)[C@H](Cc1ccccc1)NC(=O)[C@H](CC(N)=O)NC(=O)[C@H](CCC(N)=O)NC(=O)[C@H](CO)NC(=O)[C@H](CO)NC(=O)[C@H](Cc1c[nH]cn1)NC(=O)[C@H](CCCNC(=N)N)NC(=O)[C@H](CC(C)C)NC(=O)[C@H](Cc1ccccc1)NC(=O)[C@H](CCC(=O)O)NC(=O)[C@H](C)NC(=O)[C@H](CC(C)C)NC(=O)[C@H](CCCNC(=N)N)NC(=O)[C@H](CCC(N)=O)NC(=O)[C@@H](NC(=O)[C@H](C)NC(=O)[C@@H]1CSSC[C@H](NC(=O)[C@H](CCC(=O)O)NC(=O)[C@H](CCCNC(=N)N)NC(=O)[C@H](CCC(=O)O)NC(=O)CC[C@H](NC(=O)CCCCCCCCCCCCCCCCCCC(=O)O)C(=O)O)C(=O)N[C@@H](CC(N)=O)C(=O)N[C@@H]([C@@H](C)O)C(=O)N[C@@H](C)C(=O)N[C@@H]([C@@H](C)O)C(=O)N1)[C@@H](C)O)C(=O)N[C@@H](CC(C)C)C(=O)N1CCC[C@H]1C(=O)N1CCC[C@H]1C(=O)N[C@H](C(=O)N[C@@H](CC(N)=O)C(=O)N[C@H](C(=O)NCC(=O)N[C@@H](CO)C(=O)N[C@@H](CCC(N)=O)C(=O)N[C@H](C(=O)N1CCC[C@H]1C(N)=O)[C@@H](C)O)C(C)C)[C@@H](C)O [Example 162, N-alpha-[(S)-4-Carboxy-4-(19-carboxynonadecanoylamino)butyryl]-Glu-Arg-[Glu1, Glu14, Arg17, Gln21, Gln35, Pro37]-pramlintide] ({C20 diacid-γGlu}-ERECNTATCATQRLAEFLRHSSQNFGPILPPTNVGSQTP-NH2; disulfide 4-9)	>45 h	>45 hr
CC[C@H](C)[C@H](NC(=O)[C@@H]1CCCN1C(=O)CNC(=O)[C@H](Cc1ccccc1)NC(=O)[C@H](CO)NC(=O)[C@H](CO)NC(=O)[C@H](CO)NC(=O)[C@H](CO)NC(=O)[C@H](CCCNC(=N)N)NC(=O)[C@@H](NC(=O)[C@H](CC(C)C)NC(=O)[C@H](Cc1ccccc1)NC(=O)[C@H](CCC(=O)O)NC(=O)[C@H](C)NC(=O)[C@H](CC(C)C)NC(=O)[C@H](CCCNC(=N)N)NC(=O)[C@H](CCC(N)=O)NC(=O)[C@@H](NC(=O)[C@H](C)NC(=O)[C@@H]1CSSC[C@H](NC(=O)[C@H](CCCCN)NC(=O)CC[C@H](NC(=O)CCCCCCCCCCCCCCCCCCC(=O)O)C(=O)O)C(=O)N[C@@H](CC(N)=O)C(=O)N[C@@H]([C@@H](C)O)C(=O)N[C@@H](C)C(=O)N[C@@H]([C@@H](C)O)C(=O)N1)[C@@H](C)O)C(C)C)C(=O)N[C@@H](CC(C)C)C(=O)N[C@@H](CO)C(=O)N[C@@H](CO)C(=O)N[C@H](C(=O)N[C@@H](CC(=O)O)C(=O)N[C@H](C(=O)NCC(=O)N[C@@H](CO)C(=O)N[C@@H](CC(=O)O)C(=O)N[C@H](C(=O)N1CCC[C@H]1C(N)=O)[C@@H](C)O)C(C)C)[C@@H](C)O [Example 170, N-alpha-[(S)-4-Carboxy-4-(19-carboxynonadecanoylamino)butyryl]-[Glu14, Arg18, Ser21, Ser22, Ser28, Ser29, Asp31, Asp35, Pro37]-pramlintide] ({C20 diacid-γGlu}-KCNTATCATQRLAEFLVRSSSSFGPILSSTDVGSDTP-NH2; disulfide 2-7 (inferred); C-terminus assumed)	>45 h	>45 hr

Next, values leading:

Th T pH 4.0 lag time (h)	ThT pH 4.0 lag time	Structure (SMILES)
>45 h	>45 hr	CC[C@H](C)[C@H](NC(=O)[C@@H]1CCCN1C(=O)CNC(=O)[C@H](Cc1ccccc1)NC(=O)[C@H](CC(N)=O)NC(=O)[C@@H](NC(=O)[C@H](CO)NC(=O)[C@H](CO)NC(=O)[C@H](Cc1c[nH]cn1)NC(=O)[C@H](Cc1c[nH]cn1)NC(=O)[C@H](CC(C)C)NC(=O)[C@H](Cc1ccccc1)NC(=O)[C@H](CCC(=O)O)NC(=O)[C@H](C)NC(=O)[C@H](CC(C)C)NC(=O)[C@H](CCCNC(=N)N)NC(=O)[C@H](CCC(N)=O)NC(=O)[C@@H](NC(=O)[C@H](C)NC(=O)[C@@H]1CSSC[C@H](NC(=O)[C@H](CCCCN)NC(=O)CC[C@H](NC(=O)CCCCCCCCCCCCCCCCCCC(=O)O)C(=O)O)C(=O)N[C@@H](CC(N)=O)C(=O)N[C@@H]([C@@H](C)O)C(=O)N[C@@H](C)C(=O)N[C@@H]([C@@H](C)O)C(=O)N1)[C@@H](C)O)[C@@H](C)O)C(=O)N[C@@H](CC(C)C)C(=O)N1CCC[C@H]1C(=O)N1CCC[C@H]1C(=O)N[C@H](C(=O)N[C@@H](CC(N)=O)C(=O)N[C@H](C(=O)NCC(=O)N[C@@H](CO)C(=O)N[C@@H](CC(N)=O)C(=O)N[C@H](C(=O)N1CCC[C@H]1C(N)=O)[C@@H](C)O)C(C)C)[C@@H](C)O [Example 146, N-alpha-[(S)-4-Carboxy-4-(19-carboxynonadecanoylamino)butyryl]-[Glu14, His17, Thr21, Pro37]-pramlintide] ({C20 diacid-γGlu}-KCNTATCATQRLAEFLHHSSTNFGPILPPTNVGSNTP-NH2; disulfide 2-7 (inferred); C-terminus assumed)
>45 h	>45 hr	CC[C@H](C)[C@H](NC(=O)[C@@H]1CCCN1C(=O)CNC(=O)[C@H](Cc1ccccc1)NC(=O)[C@H](CC(N)=O)NC(=O)[C@H](CCC(N)=O)NC(=O)[C@H](CO)NC(=O)[C@H](CO)NC(=O)[C@H](Cc1c[nH]cn1)NC(=O)[C@H](Cc1c[nH]cn1)NC(=O)[C@H](CC(C)C)NC(=O)[C@H](Cc1ccccc1)NC(=O)[C@H](CCC(=O)O)NC(=O)[C@H](C)NC(=O)[C@H](CC(C)C)NC(=O)[C@H](CCCNC(=N)N)NC(=O)[C@H](CCC(N)=O)NC(=O)[C@@H](NC(=O)[C@H](C)NC(=O)[C@@H]1CSSC[C@H](NC(=O)[C@H](CCCCN)NC(=O)CC[C@H](NC(=O)CCCCCCCCCCCCCCCCCCC(=O)O)C(=O)O)C(=O)N[C@@H](CC(N)=O)C(=O)N[C@@H]([C@@H](C)O)C(=O)N[C@@H](C)C(=O)N[C@@H]([C@@H](C)O)C(=O)N1)[C@@H](C)O)C(=O)N[C@@H](CC(C)C)C(=O)N1CCC[C@H]1C(=O)N1CCC[C@H]1C(=O)N[C@H](C(=O)N[C@@H](CC(N)=O)C(=O)N[C@H](C(=O)NCC(=O)N[C@@H](CO)C(=O)N[C@@H](CC(N)=O)C(=O)N[C@H](C(=O)N1CCC[C@H]1C(N)=O)[C@@H](C)O)C(C)C)[C@@H](C)O [Example 130, N-alpha-[(S)-4-Carboxy-4-(19-carboxynonadecanoylamino)butyryl]-[Glu14, His17, Gln21, Pro37]-pramlintide] ({C20 diacid-γGlu}-KCNTATCATQRLAEFLHHSSQNFGPILPPTNVGSNTP-NH2; disulfide 2-7 (inferred); C-terminus assumed)
